We go through 2 compounds from publication PMC5650142, “GPR40 partial agonists and AgoPAMs: Differentiating effects on glucose and hormonal secretions in the rodent” (PLoS ONE, 2017).

The structures appear in SMILES notation. Where “and” joins values, the source holds several entries; their conditions need not be identical. Equal entries are not always repeated.

Test [1] deals with GK rats. The test is described as follows: GK rat chronic efficacy (28 days: glucose, food intake, body weight, GLP-1, GIP, PYY, insulin, glucagon). In kind it is in vivo. The following applies: 30 mpk; for Fasted glucose on day 28 (Fig 3B): day 28, fasted, individual animals. The protocol: At the start of the study, fed (ambient) blood glucose was measured via glucometer at 1 h post lights on, and animals were selected and sorted into treatment groups based on ambient glucose (n = 10/ GK group, n = 6 WKY control). Blood for baseline incretin measurements was collected in the PM via tail vein. Rats were dosed via oral gavage (PO) at a volume of 5 ml/kg daily at approximately 12:30 PM with either vehicle (0.5% methylcellulose), AP1 at 30 mg/kg, or AP3 at 30 mg/kg. MK-8666, a GPR40 partial agonist synthesized at Merck & Co., Inc., Kenilworth, NJ USA [13], at 30 mg/kg was administered in feed (Research Diets, New Brunswick, NJ) and provided ad lib. All compounds were administered to achieve maximal efficacious exposures determined in acute efficacy studies similar to those acute studies described above. In brief, partial agonists and AgoPAMs were titrated in the acute GK rat experiment described above and the exposure associated with maximal efficacy in glucose lowering was noted. Partial agonists and AgoPAMs were then dosed to maintain those exposures up to 24h post dose. […] Rats from this group and the WKY controls were administered vehicle PO when the vehicle, AP1, and AP3 groups were treated. Fed blood glucose, food intake, and body weights were determined on days 10, 17, 23, and 28 of study at 2 h post lights on. Immediately after these measures were taken on days 10, 17, 23, and 28, food was removed. After 5h of fasting, animals were dosed with vehicle or compound and allowed to rest for an additional hour. Glucose, GLP-1, GIP, and PYY were measured after 6h of fasting at 1 hr post dose. Fed blood glucose is described by animals having had ad libidum access to feed up till the time of sampling and occurred at 2h post-lights on where rats were nearing the end of their nocturnal feeding cycle. Fasted blood glucose is described by blood glucose sampled after 6h of fasting where food was removed at 2h post lights on. Please note that the fasted sample was taken 1h post oral dosing. On day 10, blood was collected from the tail vein (20 μl) after morning glucose measures and after 6 hour fast from a subset of n = 3 rats per treatment group to determine the fed and fasted exposure of the compounds in circulation. The blood was stored at 4°C in 0.1 M sodium citrate for subsequent analysis of drug exposure.
Blood for insulin, glucagon, GLP-1, GIP, and PYY measurements was collected into K2EDTA Microtainer tubes (BD, Franklin Lakes, NJ) pre-treated with DPP4 inhibitor (Millipore, Billerica, MA) and cOmplete™ Protease Inhibitor Cocktail Tablets (Roche Diagnostics, Indianapolis, IN). Tubes were centrifuged for 10 minutes at 5000 RPM, and plasma was aliquotted for analysis. Plasma insulin levels were measured via EIA (Mesoscale Discovery ELISA Kit, Gaithersburg MD). Rat plasma total GLP-1 was measured using Total GLP-1 (ver.2) Assay Kit (Cat#: K150JVC). The measurement of active GLP-1 was carried out in a similar manner as that described for total GLP-1 assay with the exception that MSD Active GLP-1 (ver. 2) assay kit (Cat# K150JWC) was used. Rat plasma glucagon was measured using an in-house glucagon assay developed as a MSD format sandwich immunoassay (Merck & Co., Inc., MRL, Kenilworth, NJ USA). The antibody specificity was cross validated via mass- spec using procedures described in Lee et al. Briefly, MSD Streptavidin Gold plates were coated with 2 μg/ml biotin mouse monoclonal antibody generated to glucagon. Test samples were added to the plates and a separate Sulfo- tagged monoclonal antibody was used to detect the captured glucagon protein (2 μg/ml). The ELISA was carried out in the standard reagents in the MSD format. The plate was read on the SECTOR Imager 6000 Reader. Metabolic hormones GIP (Gastric Inhibitory Polypeptide) and PYY (Peptide YY) were measured in rat plasma using the Rat Metabolic Magnetic Bead Panel (EMD Millipore, Billerica, MA). The assay was performed according to manufacturer protocol. […]

Test [2] has as its system GK rats. The test is described as follows: Endogenous glucose production in vivo (2H/13C dual tracer).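 As to Glucose production, EGP Total: micromoles per kg body weight per minute.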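 As to Glucose production, Glycerol: absolute flux in micromoles per kg per minute.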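 As to Glucose production, Glycogen: absolute flux in micromoles per kg per minute.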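 As to Glucose production, TCA: absolute flux in micromoles per kg per minute.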 On the set-up: species or system rat. The following applies: GK rats, 30 mpk, individual animal values (data for Fig 8); 30 mg/kg. The procedure: To evaluate the effects of the GPR40 partial and AgoPAM compounds on EGP in vivo, a 2H/13C dual tracer approach was used to calculate EGP and its contributing sources. Following the chronic treatments described above, 0.9% NaCl salinated deuterium oxide (D2O, Sigma-Aldrich, St. Louis, MO) was administered to all animals via intraperitoneal (IP) injection at dose volume of 20 ml/kg at 1 hr post lights on. Animals were then placed in clean cages and food was removed. After a 5 hour fast, blood glucose was measured and animals were dosed with 50 mg/kg [U-13C] glucose (Sigma-Aldrich, St. Louis, MO) IP at 5 ml/kg. Blood was collected via tail snip at time points from 60–150 min post treatment to measure blood glucose (via glucometer) as well as endogenous (12C-glucose) and exogenous (13C-glucose) via GCMS. Following the last tail blood collection, rats were anesthetized with isoflurane and cardiac blood was collected into K2EDTA tubes (Becton, Dickinson and Co., Franklin Lakes, NJ).
The serially collected blood samples were analyzed for 13C-glucose enrichment using GC-MS analysis. The % 13C glucose enrichments were then combined with the total glucose readings to calculate the concentration of 13C-glucose, and these values were modeled with a two-compartment model of whole body glucose metabolism to calculate the average EGP for the period from 0–150 minutes.
Terminal blood samples were analyzed for relative 2H enrichment in plasma glucose using the monoacetone glucose method. Briefly, samples were extracted with 70% perchloric acid at a ratio of 50 μl perchloric acid per 1 ml plasma and centrifuged at 25,000 rcf for 10 min at 4°C. The supernatant was collected and the pH was adjusted to 6–8 using aqueous KOH. The samples were then lyophilized overnight. To convert plasma glucose to monoacetone glucose (MAG), acetone and concentrated sulfuric acid were added to the lyophilized samples and stirred for 4 hours at room temperature. Water was then added and the pH adjusted to 2.0 with 3M Na2CO3. Samples were stirred moderately for 18 hours at room temperature, the pH was adjusted to 7 with 3M Na2CO3, and the samples were completely dried by speed vacuum concentration. The resulting MAG samples were then extracted in hot ethyl acetate, dried overnight under a stream of N2 gas, and purified using Discovery DSC-18 SPE columns (6 ml, 1 g bed weight). For the SPE protocol, MAG samples were reconstituted in 3 ml water and passed over the columns which were pre-washed with 2 ml methanol. The columns were rinsed twice with 1 ml water and the MAG was eluted with 5% acetonitrile. The acetonitrile eluent was then transferred to a glass scintillation vial and freeze dried. Purified MAG samples were solubilized in 180 μl 90% acetonitrile for 2H NMR analysis which was performed using the lock channel of a 950 MHz Bruker NMR spectrometer (David H Murdock Research Institute, DHMRI Kannapolis, NC). Acquisition parameters were as follows: 90° pulse, D1 = 1 s, 1H broadband decoupling, NS = 3600, acquisition time ~ 1 hr. The 2H NMR spectra of the MAG samples were then analyzed using Matlab (The Mathworks Inc, Natick, MA) to model the NMR peaks with a Lorentzian lineshape, and the results were used to calculate integrals for each of the seven NMR resonances in the MAG spectrum. Peaks 2, 5, and 6s were then used to calculate the relative sources of EGP (i.e. gluconeogenesis from TCA cycle substrates, glucose production from triose phosphates, and glycogenolysis) and these values were combined with the total EGP measurement to calculate absolute fluxes of glucose production.

For `C[C@H](C(=O)O)[C@H](c1ccc2c(c1)O[C@H](C1CN(Cc3cc(C(F)(F)F)ccc3C(F)(F)F)C1)CC2)C1CC1` [L-846], the “Glucose Over time (S2 File, Fig 2A)” value is 162 mg/dL and 164 mg/dL and 165 mg/dL and 161 mg/dL and 182 mg/dL and 169 mg/dL and 204 mg/dL and 174 mg/dL and 186 mg/dL and 171 mg/dL with GK rats [1] (Day 0, individual animals); 98 mg/dl and 122 mg/dl and 115 mg/dl and 114 mg/dl and 99 mg/dl (2×) and 103 mg/dl and 104 mg/dl and 100 mg/dl and 85 mg/dl with GK rats [1] (Day 10, individual animals); 78 mg/dl and 96 mg/dl and 115 mg/dl and 110 mg/dl (2×) and 103 mg/dl and 108 mg/dl and 107 mg/dl and 101 mg/dl and 109 mg/dl in the test with GK rats [1] (Day 17, individual animals); 101 mg/dL and 120 mg/dL and 118 mg/dL and 110 mg/dL and 107 mg/dL and 103 mg/dL and 114 mg/dL and 129 mg/dL and 102 mg/dL and 106 mg/dL in the test on GK rats [1] (Day 23, individual animals); 112 mg/dl and 106 mg/dl and 113 mg/dl (3×) and 116 mg/dl and 101 mg/dl and 141 mg/dl and 132 mg/dl and 119 mg/dl in the test on GK rats [1] (Day 28, individual animals). For the same compound, the “Fasted glucose on day 28 (Fig 3B)” value in the test with GK rats [1] was 104 and 110 and 84 and 100 and 96 and 87 and 101 and 99 and 103. Further, the “Glucose production, EGP Total” value in the test with GK rats [2] was 61.0286 µmol/kg/min and 62.3968 µmol/kg/min and 60.5987 µmol/kg/min and 63.0498 µmol/kg/min and 58.2916 µmol/kg/min and 53.1262 µmol/kg/min and 50.1943 µmol/kg/min and 59.3349 µmol/kg/min. Moreover, in the test with GK rats [2], the “Glucose production, Glycerol” value is 5.2866 µmol/kg/min and 7.6637 µmol/kg/min and 4.613 µmol/kg/min and 10.7135 µmol/kg/min and 9.19 µmol/kg/min and 7.224 µmol/kg/min and 6.179 µmol/kg/min and 7.862 µmol/kg/min. Further, the “Glucose production, Glycogen” value with GK rats [2] is 22.4627 µmol/kg/min and 29.4039 µmol/kg/min and 20.4093 µmol/kg/min and 17.187 µmol/kg/min and 19.1242 µmol/kg/min and 17.4656 µmol/kg/min and 16.9199 µmol/kg/min and 18.0022 µmol/kg/min. Moreover, in the test with GK rats [2], the “Glucose production, TCA” value is 33.2793 µmol/kg/min and 25.3292 µmol/kg/min and 35.5765 µmol/kg/min and 35.1493 µmol/kg/min and 29.9769 µmol/kg/min and 28.4363 µmol/kg/min and 27.0955 µmol/kg/min and 33.4708 µmol/kg/min.
For `COc1ccc(F)c(-c2ccc([C@@H]3CCc4ccc([C@H](C5CC5)[C@H](C)C(=O)O)cc4O3)cc2)c1` [L-254], the “Glucose Over time (S2 File, Fig 2A)” value was 162 mg/dL and 163 mg/dL and 174 mg/dL and 167 mg/dL and 198 mg/dL and 181 mg/dL and 193 mg/dL and 168 mg/dL and 160 mg/dL and 171 mg/dL with GK rats [1] (Day 0, individual animals); 111 mg/dl and 110 mg/dl (2×) and 123 mg/dl and 100 mg/dl and 101 mg/dl and 106 mg/dl and 92 mg/dl and 99 mg/dl and 95 mg/dl in the test on GK rats [1] (Day 10, individual animals); 110 mg/dl and 118 mg/dl and 103 mg/dl (2×) and 138 mg/dl and 137 mg/dl and 96 mg/dl and 95 mg/dl and 124 mg/dl and 108 mg/dl in the test with GK rats [1] (Day 17, individual animals); 115 mg/dl and 109 mg/dl and 125 mg/dl and 106 mg/dl and 126 mg/dl (2×) and 127 mg/dl and 107 mg/dl and 117 mg/dl and 130 mg/dl in the test with GK rats [1] (Day 23, individual animals); 114 mg/dl and 98 mg/dl and 108 mg/dl and 105 mg/dl and 131 mg/dl and 113 mg/dl (2×) and 126 mg/dl and 121 mg/dl and 107 mg/dl with GK rats [1] (Day 28, individual animals). Besides, the “Fasted glucose on day 28 (Fig 3B)” value in the test with GK rats [1] is 104 and 87 and 118 and 99 and 111 and 114 and 95 and 92. In the test with GK rats [2], the “Glucose production, EGP Total” value is 61.3579 µmol/kg/min and 60.2311 µmol/kg/min and 73.9647 µmol/kg/min and 47.8618 µmol/kg/min and 64.0721 µmol/kg/min and 48.3077 µmol/kg/min and 46.8784 µmol/kg/min and 45.4367 µmol/kg/min and 55.8377 µmol/kg/min. Besides, the “Glucose production, Glycerol” value in the test with GK rats [2] was 10.657 µmol/kg/min and 6.4047 µmol/kg/min and 5.755 µmol/kg/min and 5.519 µmol/kg/min and 3.299 µmol/kg/min and 5.985 µmol/kg/min and 2.316 µmol/kg/min. In addition, the “Glucose production, Glycogen” value in the test on GK rats [2] was 22.6257 µmol/kg/min and 22.3444 µmol/kg/min and 14.5988 µmol/kg/min and 19.8177 µmol/kg/min and 18.6577 µmol/kg/min and 12.2721 µmol/kg/min and 17.7499 µmol/kg/min. For the same compound, the “Glucose production, TCA” value in the test on GK rats [2] was 26.9483 µmol/kg/min and 45.2155 µmol/kg/min and 27.5078 µmol/kg/min and 38.7357 µmol/kg/min and 26.3505 µmol/kg/min and 28.6217 µmol/kg/min and 25.3709 µmol/kg/min.
